Test results from patent publication EP0847397B1, “WATER-SOLUBLE C-RING ANALOGUES OF 20 (S)-CAMPTOTHECIN” (DR. REDDY'S RESEARCH FOUNDATION, priority 1996, dated 1997).
≈ marks a conversion by molar mass, not a printed value.

Columns and labels:
[1] = result in words, compared with 20(S)-camptothecin; cited from earlier work
[2] = tested on: NCI's 60 human tumor cell line assay; assay: cells; format: cell-based; details: 60 cell, 48 h, read-out: IC50 (mean GI50 against NCI's 60 human tumor cell line assay)
Description: (§3) Each test compound was screened against a battery of 60 human cell lines obtained from eight organs. In a typical procedure, the cell suspensions that were diluted according to the particular cell type and the expected target cell density (5000-40,000 cells per well based on cell growth characteristics) were added into 96-well microtiter plates. Inoculates were allowed a preincubation period of 24h at 37°C. for stabilization. Dilutions at twice the intended test concentrations were added at time zero in 100-µl aliquots to microtiter plate wells. Usually test compounds were evaluated at five 10-fold dilutions. The highest well concentration used in the test is 10^-4M. The cells are then incubated in the presence of drug (the test compound) for further 48h in 5% CO2 atmosphere and 100% humidity. At the end of this time, the adherent cells are fixed to the plate by means of trichloroacetic acid, and after a number of washes, the cell layer is treated with the protein stain Sulforhodamine B. The optical density which is proportional to protein mass, is then read by automated spectrophotometric plate readers at a wavelength of 515 nm. Readings are transferred to a microcomputer and final reports are generated using especially developed software.

[3] = Solubility by routine method; format: physicochemical; details: deionized water, 37°C
Description: 5. Solubility by routine method:
Compound was suspended in 5 ml of deionized water and heated to 37°C. for 10 min. Then, the solution was filtered and the filtrate was evaporated to drying using methanol and the solid residue was weighed.

[4] = Solubility by HPLC method; format: physicochemical; details: aqueous buffer, 0.1M sodium acetate buffer pH 5.0, 24 hours, room temperature
Description: 4. Solubility by HPLC method:
Excess of compound was soaked in 0.5 ml of 0.1M sodium acetate buffer at pH 5.0 for 24 hours at room temperature. The solution was filtered through 0.45 micron PVDF syringe filter (Gelman Sciences). The filtrate was injected into HPLC at different volumes (10 & 20 µl). Chromatograms were recorded. Responses recorded were extrapolated from the calibration curve and the solubility of the compound was calculated. (J. Med. Chem., 1995; 38: 400)

OVCAR-8 = assay: In vitro activity after 1 hour exposure (Sulforhodamine B); format: cell-based; details: Homo sapiens; OVCAR-8, 1 hour exposure then 48 hours drug-free
Description: (§1) 6. In vitro activity after 1 hour exposure:
(§2) Grow the cells in 15 ml of Complete Medium (RPM1-1640 with 10% Fetal bovine serum and 0.2% NaHCO3) for 3-5 days to obtain a cell number of 10^6 cells/flask. The medium is removed and the attached cells are washed with Phosphate Buffered Saline (PBS). 1 ml of 0.1% Trypsin-EDTA is added and incubated for 5 min at 37°C. Tap the flasks gently and add 5 ml of complete medium. Remove cell suspension and centrifuge at 2000 rpm for 5 min. Discard the supernatant and suspend the pellet in 5 ml of complete medium. Count the cell number in a haemocytometer. Dilute the cell suspension to 10,000 cells/100 µl in complete medium. Plate out 100 µl of cell suspension in each of 96 well microtitre plate and incubate for 24 hrs at 37°C. and 5% CO2. Terminate the reference blank (plated out separately) with 25 µl of 50% cold Trichloroacetic acid (TCA). Incubate for 1 hour at 4°C. Wash the plate (five times) with deionized water. Air dry and preserve the plate at 4°C. for determination of T0 value. Prepare suitable dilution of the test compound in complete medium and add 100 µl to each well to maintain the final concentration ranging between 10^-4M and 10^-8M. Incubate for 1 hr at 37°C. and 5% CO2. Centrifuge the microtitre plate at 1000 rpm for 5 min. Remove the supernatant. Wash the cells twice with 100 µl of PBS to remove the traces of test compound. Add 200 µl of complete medium to each well and incubate for 48 hours at 37°C. and 5% CO2. Terminate the cell growth with the addition of 50 µl of 50% cold TCA. Incubate the plate for 1 hr at 4°C. Wash the plates with deionized water (five times) and air dry. Add 100 µl of Sulforhodamine B solution (0.4% in 1% acetic acid) to each well. Keep at room temperature for 15 minutes. Wash (five times) with 1% acetic acid and air dry. Add 100 µl of 10mM Trizma base (Sigma), shake gently on plate shaker for 15 minutes and read the optical density at 490 nm in Spectrophotometric plate reader. (as per the protocol followed by the U.S. National Cancer Institute.

DU-145 = assay: as above; format: cell-based; details: Homo sapiens; DU-145, 1 hour exposure then 48 hours drug-free
Description: as §1, §2

ACHN = assay: as above; format: cell-based; details: Homo sapiens, 1 hour exposure then 48 hours drug-free
Description: as §1, §2

HOP-62 = assay: as above; format: cell-based; details: Homo sapiens; HOP-62, 1 hour exposure then 48 hours drug-free
Description: as §1, §2

UACC-62 = assay: as above; format: cell-based; details: Homo sapiens; UACC-62, 1 hour exposure then 48 hours drug-free
Description: as §1, §2

SF-268 = assay: as above; format: cell-based; details: Homo sapiens
Description: as §1, §2

MCF-7/ADR = assay: as above; format: cell-based; details: Homo sapiens, NCI/ADR-RES, 1 hour exposure then 48 hours drug-free
Description: as §1, §2

Pharmacokinetics at MTD = format: in vivo, Swiss albino mice; details: mouse, ip, intraperitoneal, plasma
Description: 3. Pharmacokinetics at MTD:
All studies were carried out in Swiss albino mice in the weight range 35-40 g. The animals were fasted overnight prior to dosage of the drug and were fed 3 hours after dosing. The animals were dosed intraperitonially as a solution in DMSO:water (50:50; v/v). Blood samples were drawn from orbital sinus at 1, 2, 4, 6 and 8 hours after administration of the dose into heparinized tubes, centrifuged at 13000 RPM for 10 min. Plasma samples were separated and analyzed by HPLC. To 50 µl of the sample, 100 µl of chilled acidified methanol was added and mixed to precipitate proteins. The sample was centrifuged at 13,000 RPM for 10 min. 100 µl of supernatant was made up to 200 µl with methanol:water (50:50; v/v) and 100 µl was injected on HPLC. Peak area of the drug was used for quantification. Calibration, control and recovery samples were prepared by spiking 50 µl of blank plasma with known amounts of the drug and processed in the same manner as the samples. (J. Natl. Cancer Inst., 1996; 88:817-824).

[5] = MTD in Swiss albino mice (single dose); details: mouse, in vivo, 14 days observation
Description: 1. MTD in Swiss albino mice:
Each Swiss Albino mouse is injected with a single does of the test compound on a day designated as Day 1: Doses that were tested are 400, 200, 100, 50, 25, 12.5, 8.3, 6.25 and 3.13 mg/kg body weight. […] (As per the protocol followed by the U.S. National Cancer Institute)

MOLT 4 = assay: NCI in vitro 60 human tumor cell line assay; format: cell-based; details: MOLT-4, 48 h, read-out: Total Growth Inhibition (TGI)
Description: as §3

SF 295 = assay: NCI in vitro 60 human tumor cell line assay; format: cell-based; details: SF-295, 48 h, read-out: Total Growth Inhibition (TGI)
Description: as §3

MCF 7 = assay: NCI in vitro 60 human tumor cell line assay; format: cell-based; details: MCF7, 48 h, read-out: Total Growth Inhibition (TGI)
Description: as §3

HT 29 = assay: NCI in vitro 60 human tumor cell line assay; format: cell-based; details: Homo sapiens, HT-29, 48 h, read-out: Total Growth Inhibition (TGI)
Description: as §3

U 251 = assay: NCI in vitro 60 human tumor cell line assay; format: cell-based; details: U-251, 48 h, read-out: Total Growth Inhibition (TGI)
Description: as §3

Question: Which anti-tumor activity [1] does the source give for 5-hydroxymethyl camptothecin here?
Answer: reduced anti-tumor activity

Question: Which results are given for `CCOC1c2cc3c(O)cccc3nc2-c2cc3c(c(=O)n21)COC(=O)[C@]3(O)CC` (stereo partly drawn) [Example 11, 5-Ethoxy-9-hydroxycamptothecin]?
Answer: mean GI50 [2]: 6.68 µM; solubility at 10 min [3]: < 1000 µg/mL; solubility at 24 h [4]: 170 µg/mL (≈ 416 µM); GI50 (OVCAR-8): 4.5 µM; GI50 (DU-145): 0.35 µM; GI50 (ACHN): 0.55 µM; GI50 (HOP-62): 6 µM; GI50 (UACC-62): 40 µM; GI50 (SF-268): 6 µM; GI50 (MCF-7/ADR): 1.5 µM; AUC(0-t) (Pharmacokinetics at MTD; DMSO:water (50:50), read-out: AUC0-1): 18.5 ± 2.1 µM·h; Cmax (Pharmacokinetics at MTD): 6.95 ± 1.2 µM; Tmax (Pharmacokinetics at MTD): 1 h; half-life (Pharmacokinetics at MTD): 1.92 ± 0.4 h; k el (Pharmacokinetics at MTD): 0.000103 s⁻¹; MTD at 336 h ([5]; intravenous): 100 mg/kg; MTD at 336 h ([5]; ip, intraperitoneal): 400 mg/kg

Question: Which IC (TGI) (MOLT 4) does the source give for `CC[C@@]1(O)C(=O)OCc2c1cc1n(c2=O)C(OCC(F)(F)F)c2cc3ccccc3nc2-1` (stereo partly drawn) [Example 25, 5-trifluoroethoxycamptothecin] here?
Answer: 3 µM

Question: What about the IC (TGI) (SF 295) of the same compound?
Answer: 2.15 µM

Question: And the mean GI50 [2]?
Answer: 1.82 µM

Question: What about the IC (TGI) (MCF 7) of the same compound?
Answer: 9.2 µM

Question: And the IC (TGI) (HT 29)?
Answer: 7.9 µM

Question: And the IC (TGI) (U 251)?
Answer: 3.57 µM
